The series is described as follows: GHS categories as the set defines them, by LD50: 1 up to 5, 2 up to 50, 3 up to 300, 4 up to 2000, 5 above 2000 mg/kg. The settings on record: rat; in vivo; po. From the text: […]The data set underlying the modeling effort for this project was initially compiled by NICEATM and U.S. EPA’s CCTE. Briefly, LD50 data were collected from rat acute oral systemic toxicity tests, including limit tests, ranges/confidence intervals, and discrete LD50 values. The full data set included 21,200 LD50 entries for 15,688 substances. […] Data were reviewed to ensure that LD50 values with obvious errors in the extracted data such as unit conversion errors (e.g., comma and decimal separator misplacements) were either fixed or removed. After this review, 16,209 LD50 values remained. Many of the chemicals represented had multiple LD50 entries, requiring that a single representative value per Chemical Abstracts Service Registry Number (CASRN) identifier be defined to facilitate modeling efforts. Based on ATWG feedback and to define the representative LD50 as a protective value while accounting for the distribution across multiple LD50s, the median of the lowest quartile was computed using only discrete LD50 values (omitting limit test data and range and confidence interval data). A detailed summary of the data compilation is available online on the NICEATM webpage dedicated to the collaborative modeling project (NTP 2020).
[…][…] For categorical designations, limit test and range/confidence interval LD50 data were integrated wherever possible. As such, the number of chemicals with end point values/calls varies across the modeling end points (Table 3) based on whether chemicals had representative LD50 values and/or other data. If a chemical had both, the representative value was used to determine categorical calls rather than limit test data. Some data were useable only for certain end points and categories depending on the thresholds. For example, ranges that spanned multiple hazard categories were considered only for the binary (very toxic/nontoxic) end points and omitted from rendering a determination for hazard category assignment.
[…]The final data set comprising 11,992 chemicals was split into training and evaluation sets […], respectively. This process was performed semirandomly by ordering chemicals based on the five end points (categorical and continuous LD50 values) and partitioning every fourth record into the evaluation set accordingly. This approach was taken to ensure an equivalent distribution of the LD50 values and the different hazard categories between the training and the evaluation sets without supervised sampling of the chemicals based on structures (Figure 1A). The sources of the chemical structures were also kept equivalent between the two sets, with chemical structures obtained from DSSTox, being the highest quality, representing over 75% of each set (Figure 1B).
`C=CC(=C)CCC=C(C)C`: the GHS category is recorded as 5.

As for `CCOC(=O)COc1ccc2c(=O)cc(-c3ccccc3)oc2c1`, the GHS category was found to be 5.

Consider `COCCOc1ccccc1S(=O)(=O)N=C(O)N=c1nc(OC)[nH]c(OC)n1`, for which the GHS category was 5.

Turning to `CCC1(CC)COC(Cn2cncn2)(c2cc3ccccc3o2)OC1`, the GHS category turned out to be 4.

On to `CCCCC(C)OP(=S)(OC)OC` (stereo not drawn), for which the GHS category worked out at 4.

Molecule `C(=C\c1ccccc1)/CN1CCN(C(c2ccccc2)c2ccccc2)CC1` came in with a GHS category of 5.

`O=C1CCC(N2C(=O)c3ccccc3C2=O)C(=O)N1CN1CCOCC1` (stereo not drawn) registered a GHS category of 5.

Molecule `N#CNC(=N)NCCCCCCNC(=N)NC#N` had a GHS category of 5.

Regarding `CCCCCCCCCNP1(=S)OCc2cc([N+](=O)[O-])ccc2O1` (stereo not drawn), the GHS category is listed as 3.

The molecule `CC1CCC(C(C)(C)O)CC1` (stereo not drawn) returned a GHS category of 5.

Consider `CCC(C)O[Si](OC(C)CC)(OC(C)CC)OC(C)CC` (stereo not drawn), for which the GHS category turned out to be 5.

`CC(C)C1=CC23CCC4C(C)(C(=O)N5CCNCC5)CCCC4(C)C2CC1C1C(=O)OC(=O)C13` (stereo not drawn): the GHS category was found to be 5.

`CC1CC(OC(=O)COc2ccccc2Cl)CC(C)(C)C1` (stereo not drawn) came in with a GHS category of 5.

Consider `C=CCCCC(C)C`, for which the GHS category is 5.

For `CNC(=O)C(=NNc1cccc(Cl)c1)C(C)=O`, the GHS category was 5.

`O=C(Nc1ccc(F)cc1F)c1cccnc1Oc1cccc(C(F)(F)F)c1`: the GHS category is listed as 5.

In turn, `CN1CCN(c2c(F)cc3c(=O)c(C(=O)O)cn(CCF)c3c2F)CC1` gave a GHS category of 5.

In turn, `NC(N)=Nc1nc(CSCC/N=C/NS(=O)(=O)c2ccc(Br)cc2)cs1` came in with a GHS category of 5.

Take `CNc1ccc([N+](=O)[O-])cc1`: the GHS category is 5.

Turning to `O=C1NC(=O)C(c2ccc(O)cc2)(c2ccc(O)c(Cl)c2)N1` (stereo not drawn), the GHS category is 5.

On to `CCOC(=O)NC(=S)Nc1ccccc1NC(=S)NC(=O)OCC`, for which the GHS category is on record as 5.

Molecule `CC1(C)Oc2cc(C(=O)c3ccc(Cl)cc3)ccc2NC1=O` registered a GHS category of 5.

`CCCCC(CC)COC(=O)c1ccc(Nc2nc(Nc3ccc(C(=O)NC(C)(C)C)cc3)nc(Nc3ccc(C(=O)OCC(CC)CCCC)cc3)n2)cc1` (stereo not drawn) yielded a GHS category of 5.

As to `COc1cccc(OC)c1C(=O)O`, the GHS category is listed as 4.

In turn, `CC(=O)[C@@]1(O)CC[C@H]2[C@@H]3CCC4=CC(=O)CC[C@]4(C)C3=CC[C@@]21C` had a GHS category of 5.

Turning to `CCn1cc(C(=O)O)c(=O)c2cc(F)c(-n3cccc3)cc21`, the GHS category was 5.

For `Nc1ccc(C(=O)NCCN2CCN(c3ccccn3)CC2)cc1`, the GHS category was found to be 5.

`CC(C)(C1CCC(O)CC1)C1CCC(O)CC1` (stereo not drawn) returned a GHS category of 5.

For the molecule `COC[C@H]1CO[C@@](Cn2cncn2)(c2cc3ccccc3o2)O1`, the GHS category is 4.

In the case of `CC(=O)Nc1ccc2cc(S(=O)(=O)O)c(N=Nc3ccc(S(=O)(=O)CCOS(=O)(=O)O)cc3)c(O)c2c1`, the GHS category is 5.

The molecule `CC1(C)O[C@@H]2C[C@H]3[C@@H]4C[C@H](F)C5=CC(=O)C=C[C@]5(C)[C@@]4(F)[C@@H](O)C[C@]3(C)[C@]2(C(=O)CO)O1` gave a GHS category of 5.

`OC1C(Cl)(Cl)C(=C(Cl)Cl)C(O)(C(Cl)Cl)C1(Cl)Cl` (stereo not drawn) gave a GHS category of 4.

Take `C/C=C/C(=O)OC`: the GHS category is recorded as 5.

For `COc1c(Cl)ccc(B(O)O)c1F`, the GHS category came to 5.

As for `COP(=O)(OC)Oc1ccc(Cl)cc1Cl`, the GHS category amounted to 3.

In turn, `Cc1cc(Cl)ccc1-n1c(C)nc2cccc(Cl)c2c1=O` gave a GHS category of 5.

`CNC(=O)C(=NNc1ccc(Cl)cc1)C(C)=O` registered a GHS category of 5.

Consider `CC1CC(c2ccccc2)C(c2ccccc2)C(=O)O1` (stereo not drawn), for which the GHS category is 4.

Molecule `Cc1cc(NC(=O)C2=C(O)c3ccccc3S(=O)(=O)N2C)no1` showed a GHS category of 5.

Consider `CCCCOC(=O)C(=O)Nc1cccc(-c2nnn[nH]2)c1`, for which the GHS category came out at 5.

The molecule `COc1nn(C(=O)NS(=O)(=O)c2ccccc2OC(F)(F)F)c(=O)n1C` gave a GHS category of 5.

Take `CCCCCCCCCCCCCC=O`: the GHS category was determined as 5.

`Cc1nc(NS(=O)(=O)c2ccc(N)cc2)oc1C` came in with a GHS category of 5.

Regarding `CNC(=O)Oc1ccc(C)c2sccc12`, the GHS category came to 3.

As for `CC(C)(CO)CO`, the GHS category turned out to be 5.

In turn, `CC(C)Cc1ccc2cc(CC(=O)O)ccc2c1` registered a GHS category of 4.

With `CCN(CCO)N=O`, the GHS category is on record as 5.

`CCCCCCCCC=CCCCCCCCCCCCC(=O)NCCCN(C)C` displayed a GHS category of 5.

On to `NC(N)=N[C@@H](CS)C(=O)O`, for which the GHS category is given as 5.

Turning to `CCC(Oc1ccc(F)c(C(F)(F)F)c1)C(O)=NCc1ccccc1` (stereo not drawn), the GHS category is listed as 5.

Turning to `Cc1cc(CCC(=O)OCCOCCOCCOC(=O)CCc2cc(C)c(O)c(C(C)(C)C)c2)cc(C(C)(C)C)c1O`, the GHS category was determined as 5.

The molecule `CN(C)c1ccc(NC(=O)CCCSc2nnnn2C)cc1` returned a GHS category of 4.

`CCCCCCCCCCCCCCCCCC(=O)NP(=O)(OC)SC` (stereo not drawn): the GHS category was 3.

With `CN1C(=O)C(C)(C)Oc2cc(C(=O)C=Cc3ccc(O)cc3)ccc21`, the GHS category worked out at 5.

In turn, `O=S(=O)(O)c1cccc(N=Nc2ccc(N=Nc3ccc(Nc4ccccc4)c4c(S(=O)(=O)O)cccc34)c3ccccc23)c1` returned a GHS category of 5.

Molecule `CNC(=O)c1sc(-c2ccc(OC)c(OC)c2)nc1C` gave a GHS category of 5.

For the molecule `O=C1OCCC1O` (stereo not drawn), the GHS category is on record as 5.

As to `O=C1CC(Nc2ccc([N+](=O)[O-])cc2)=NN1c1c(Cl)cc(Cl)cc1Cl`, the GHS category is given as 5.

`Cc1cc(C)c(C=O)c(C)c1` showed a GHS category of 5.

Molecule `CCCc1c(Cc2ccc(-c3ccccc3-c3nn[nH]n3)cc2)c(=O)nc2nc(CC)[nH]n12` returned a GHS category of 4.

As for `CCCNC(=O)c1cnc2c(C)cccn2c1=O`, the GHS category turned out to be 3.

`CCN(CC)c1ccc(C=NN(c2ccccc2)c2ccccc2)cc1`: the GHS category came to 5.

Regarding `Cc1ccc(NC(=O)c2cc(C)[nH]n2)cc1`, the GHS category is listed as 5.

Molecule `CCCCCCCCO` returned a GHS category of 5.

`CCOC(=O)C(C)(C)c1ccccc1` returned a GHS category of 5.

Regarding `O=C(O)CN(CC(=O)O)CC(O)CN(CC(=O)O)CC(=O)O`, the GHS category worked out at 5.

`CS(=O)(=O)c1ccc(C(=O)C2C(=O)CCCC2=O)c(Cl)c1COCC(F)(F)F` came in with a GHS category of 5.

`CC(C)CCCCCCCCCCOCCCN` showed a GHS category of 4.

`COC(=O)CCCCCCCCCC[Si](C)(C)Cl` displayed a GHS category of 5.

Consider `COc1ccc2[nH]cc(CCNC(C)=O)c2c1`, for which the GHS category amounted to 5.

`Nc1ccc2oc(N)nc2c1` came in with a GHS category of 4.

Regarding `c1ccc2oc(C3(Cn4ccnc4)OCCO3)cc2c1`, the GHS category is recorded as 4.

Consider `CC1=CC(=O)N(Cc2cccc(CN3C(=O)C=C(C)C3=O)c2)C1=O`, for which the GHS category came out at 5.

As for `CNC(=O)C(=NNc1ccc(Cl)cc1[N+](=O)[O-])C(C)=O`, the GHS category is given as 5.

On to `CC(C)C[C@H](NC(=O)[C@@H](Cc1ccc2ccccc2c1)NC(=O)[C@H](Cc1ccc(O)cc1)NC(=O)[C@H](CO)NC(=O)[C@H](Cc1c[nH]c2ccccc12)NC(=O)[C@H](Cc1cnc[nH]1)NC(=O)[C@@H]1CCC(=O)N1)C(=O)N[C@@H](CCCN=C(N)N)C(=O)N1CCC[C@H]1C(=O)NCC(N)=O`, for which the GHS category came out at 3.

`C/C=C(\C)C(=O)OCC` came in with a GHS category of 5.

Molecule `O=C(Nc1ccc(NC(=O)c2cc3ccccc3c(N=Nc3cc(Cl)ccc3Cl)c2O)cc1)c1cc2ccccc2c(N=Nc2cc(Cl)ccc2Cl)c1O` returned a GHS category of 5.

In turn, `CCCCCCCCC(C)C=O` (stereo not drawn) registered a GHS category of 5.

`O=C1c2ccc(Oc3ccc(Cl)cc3)cc2C(=O)N1Cc1cccnc1` returned a GHS category of 5.

Take `O=C(O)c1ccc(B(O)O)cc1`: the GHS category is 5.

Take `O=C1C=CC=CC1=CNc1ccccc1C(=O)O`: the GHS category is recorded as 4.

With `O=C(NC(=O)c1c(F)cccc1F)Nc1ccc(Oc2ccc(C(F)(F)F)cc2Cl)cc1F`, the GHS category came out at 5.

Turning to `NS(=O)(=O)c1cc2c(cc1Cl)NC(C1CC3C=CC1C3)NS2(=O)=O` (stereo not drawn), the GHS category is reported as 5.

`CCCCCCCCCCCC` came in with a GHS category of 5.

`C=COC(=O)C1=C(C)N[C@@](C)(c2ccc(N3CCN(C(c4ccccc4)c4ccccc4)CC3)cc2)C(C(=O)OC)C1c1cccc([N+](=O)[O-])c1` (stereo partly drawn) showed a GHS category of 4.

In turn, `CCCCCCCCCC` registered a GHS category of 5.

In the case of `N#Cc1ccc(C#N)cc1`, the GHS category was 5.

`O=C(CCn1cnc2c(=O)nc[nH]c21)Nc1ccc(C(=O)O)cc1` had a GHS category of 5.

The values above are taken from the CATMoS acute toxicity set (Mansouri et al. 2021).
